# Data as given in patent US20230416248A1, “COMPOUNDS AND USES THEREOF” (Foghorn Therapeutics Inc., priority 2020, published 2023).
# How the values were obtained:
# BRM = target: T1, BRM (Homo sapiens, UniProt P51531); experiment: ATPase catalytic activity of BRM, ADP-Glo in vitro biochemical assay; conditions: for IC50: ATPase catalytic activity, ADP-Glo, 30 nM BRM, 400 μM ATP; for Ratio*: ratio of BRG1 IC50 to BRM IC50
# T1 construct: made in house; host or cells: High Five insect cells
# How it was run: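 Recombinant BRM (30 nM) hydrolysed 400 μM ATP with 20 nM salmon sperm DNA in pH 8 Tris buffer containing 20 mM MgCl2, 50 mM NaCl, 0.1% Tween-20 and 1 mM DTT, 1 h at room temperature. ADP formed was quantified by ADP-Glo luminescence.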
# BRG-1 = target: T2, BRG-1 (Homo sapiens, UniProt P51532); experiment: ATPase catalytic activity of BRG-1, ADP-Glo in vitro biochemical assay; conditions: ATPase catalytic activity, ADP-Glo; 30 nM BRG-1, 400 μM ATP; read-out: BRG1 IC50
# T2 construct: made in house; host or cells: High Five insect cells
# T2 sequence (P51532 whole entry): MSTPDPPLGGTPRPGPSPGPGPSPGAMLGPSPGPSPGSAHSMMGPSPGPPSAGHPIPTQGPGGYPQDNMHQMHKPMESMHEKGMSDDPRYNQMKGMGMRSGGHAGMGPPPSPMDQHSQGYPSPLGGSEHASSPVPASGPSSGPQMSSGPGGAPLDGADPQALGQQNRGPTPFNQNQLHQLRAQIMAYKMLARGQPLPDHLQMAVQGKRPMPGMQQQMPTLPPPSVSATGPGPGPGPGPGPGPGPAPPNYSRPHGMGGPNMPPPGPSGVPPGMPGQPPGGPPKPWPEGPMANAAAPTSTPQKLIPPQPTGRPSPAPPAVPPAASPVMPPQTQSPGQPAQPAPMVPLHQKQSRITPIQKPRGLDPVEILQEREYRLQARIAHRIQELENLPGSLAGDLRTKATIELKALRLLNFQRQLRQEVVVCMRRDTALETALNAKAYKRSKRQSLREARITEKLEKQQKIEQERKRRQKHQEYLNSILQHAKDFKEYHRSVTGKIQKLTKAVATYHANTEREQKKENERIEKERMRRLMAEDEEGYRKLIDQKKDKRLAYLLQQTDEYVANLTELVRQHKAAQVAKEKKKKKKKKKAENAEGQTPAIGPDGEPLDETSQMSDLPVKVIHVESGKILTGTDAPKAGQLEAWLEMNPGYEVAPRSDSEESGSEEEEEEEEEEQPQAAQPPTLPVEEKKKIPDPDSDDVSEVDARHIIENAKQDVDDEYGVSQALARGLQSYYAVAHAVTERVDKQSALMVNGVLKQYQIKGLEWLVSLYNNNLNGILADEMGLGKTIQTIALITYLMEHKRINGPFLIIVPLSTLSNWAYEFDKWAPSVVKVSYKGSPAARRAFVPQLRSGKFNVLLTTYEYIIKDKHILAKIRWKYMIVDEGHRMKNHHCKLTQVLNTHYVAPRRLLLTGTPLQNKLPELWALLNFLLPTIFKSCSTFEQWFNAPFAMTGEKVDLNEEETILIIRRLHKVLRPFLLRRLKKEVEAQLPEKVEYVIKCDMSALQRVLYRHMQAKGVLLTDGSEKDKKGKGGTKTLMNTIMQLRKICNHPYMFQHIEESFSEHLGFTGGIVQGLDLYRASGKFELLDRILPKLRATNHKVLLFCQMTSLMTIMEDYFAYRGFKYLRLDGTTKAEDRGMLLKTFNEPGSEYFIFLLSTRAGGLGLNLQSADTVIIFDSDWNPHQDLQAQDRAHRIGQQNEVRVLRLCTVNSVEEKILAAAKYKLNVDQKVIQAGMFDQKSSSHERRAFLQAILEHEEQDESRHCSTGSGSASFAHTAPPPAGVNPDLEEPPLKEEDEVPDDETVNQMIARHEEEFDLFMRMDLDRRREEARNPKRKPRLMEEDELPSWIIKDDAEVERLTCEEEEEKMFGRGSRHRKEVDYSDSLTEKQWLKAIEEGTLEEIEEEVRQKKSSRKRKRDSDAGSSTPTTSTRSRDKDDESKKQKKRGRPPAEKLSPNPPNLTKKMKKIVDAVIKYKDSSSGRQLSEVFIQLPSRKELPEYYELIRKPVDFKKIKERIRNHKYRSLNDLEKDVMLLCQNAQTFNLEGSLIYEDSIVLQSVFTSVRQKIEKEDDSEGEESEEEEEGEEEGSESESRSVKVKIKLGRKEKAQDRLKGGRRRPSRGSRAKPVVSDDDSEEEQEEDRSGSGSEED
# How it was run: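 BRG-1 ATPase activity was measured in vitro by ADP-Glo. After the reaction, ADP-Glo Reagent depleted unconsumed ATP (40 min, room temperature), then Kinase Detection Reagent converted product ADP to ATP (60 min, room temperature), and luciferase luminescence was read.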
# T1 sequence (P51531 whole entry): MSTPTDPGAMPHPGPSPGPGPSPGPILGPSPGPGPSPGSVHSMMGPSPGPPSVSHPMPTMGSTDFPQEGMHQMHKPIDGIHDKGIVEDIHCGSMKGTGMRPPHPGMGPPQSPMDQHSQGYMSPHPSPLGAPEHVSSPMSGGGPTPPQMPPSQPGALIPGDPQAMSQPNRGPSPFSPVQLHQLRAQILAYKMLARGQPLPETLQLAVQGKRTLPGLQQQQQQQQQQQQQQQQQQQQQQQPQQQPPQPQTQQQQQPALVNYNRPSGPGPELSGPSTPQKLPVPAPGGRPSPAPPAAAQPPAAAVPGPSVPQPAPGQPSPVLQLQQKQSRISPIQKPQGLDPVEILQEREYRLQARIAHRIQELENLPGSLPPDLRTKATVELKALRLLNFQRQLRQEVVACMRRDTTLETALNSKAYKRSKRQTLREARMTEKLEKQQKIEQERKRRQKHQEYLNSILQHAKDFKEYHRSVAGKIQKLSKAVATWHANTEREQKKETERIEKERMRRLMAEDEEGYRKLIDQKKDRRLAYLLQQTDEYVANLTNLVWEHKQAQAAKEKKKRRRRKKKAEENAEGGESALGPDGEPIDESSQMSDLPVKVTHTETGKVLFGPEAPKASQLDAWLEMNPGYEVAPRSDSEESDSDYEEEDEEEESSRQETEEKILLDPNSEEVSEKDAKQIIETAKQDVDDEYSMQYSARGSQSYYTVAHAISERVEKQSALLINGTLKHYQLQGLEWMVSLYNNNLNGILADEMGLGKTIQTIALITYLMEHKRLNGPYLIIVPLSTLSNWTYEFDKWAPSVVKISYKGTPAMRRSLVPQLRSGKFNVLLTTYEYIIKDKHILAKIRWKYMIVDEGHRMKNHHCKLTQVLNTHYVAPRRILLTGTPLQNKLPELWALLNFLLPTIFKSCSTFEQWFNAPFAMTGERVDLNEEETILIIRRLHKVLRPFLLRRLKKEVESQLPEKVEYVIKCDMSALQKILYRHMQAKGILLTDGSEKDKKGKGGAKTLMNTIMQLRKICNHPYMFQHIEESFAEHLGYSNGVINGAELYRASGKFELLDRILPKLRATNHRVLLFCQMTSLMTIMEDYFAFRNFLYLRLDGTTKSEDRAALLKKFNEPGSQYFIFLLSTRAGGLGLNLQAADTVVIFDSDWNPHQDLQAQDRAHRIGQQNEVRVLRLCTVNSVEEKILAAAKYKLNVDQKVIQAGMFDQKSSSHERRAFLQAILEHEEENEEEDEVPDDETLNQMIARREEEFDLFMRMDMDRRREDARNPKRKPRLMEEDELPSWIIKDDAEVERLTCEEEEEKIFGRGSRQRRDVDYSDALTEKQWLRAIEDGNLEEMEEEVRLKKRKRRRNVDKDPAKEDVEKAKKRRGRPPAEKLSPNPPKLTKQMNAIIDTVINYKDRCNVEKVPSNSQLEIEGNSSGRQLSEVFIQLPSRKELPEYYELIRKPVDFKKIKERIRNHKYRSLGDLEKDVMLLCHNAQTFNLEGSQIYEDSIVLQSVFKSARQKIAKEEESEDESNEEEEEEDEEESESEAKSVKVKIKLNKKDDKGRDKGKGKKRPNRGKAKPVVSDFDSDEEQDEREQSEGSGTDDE
IC50 (BRM) [µM],Ratio* (BRM),IC50 (BRG-1) [µM],SMILES
0.0336,26.25,0.881,CCOCc1ccc2c(n1)N(c1ccc3cnc(CNC(=O)c4ccc5c(c4)S(=O)(=O)CCOC5)cc3n1)CCC2 [Compound 564]
0.0115,12.06,0.138,COc1cnc2c(c1)CCCN2c1ccc2cnc(CNC(=O)c3ccc4c(c3)S(=O)(=O)CCOC4)cc2n1 [Compound 565]
0.0326,20.83,0.679,O=C(NCc1cc2nc(N3CCCc4ccc(N5CCC5)nc43)ccc2cn1)c1ccc2c(c1)S(=O)(=O)CCOC2 [Compound 566]
0.0328,16.28,0.534,CC1CN(c2cccc(-c3ccc4cnc(CNC(=O)c5ccc6c(c5)S(=O)(=O)C(C)CN6C)cc4n3)n2)CC(C)O1 (stereo not drawn) [Compound 567]
0.106,9.95,1.06,COc1ccc2c(n1)N(c1ccc3cnc(CNC(=O)c4ccc5c(c4)S(=O)(=O)CCOC5)cc3n1)CCC2 [Compound 568]
0.156,3.32,0.517,CN1CCCCc2ccc(-c3ccc4cnc(CNC(=O)c5ccc6c(c5)S(=O)(=O)CCOC6)cc4n3)nc21 [Compound 569]
0.0669,8.32,0.557,O=C(NCc1cc2nc(N3CCCc4ccc(C(F)(F)F)nc43)ccc2cn1)c1ccc2c(c1)S(=O)(=O)CCOC2 [Compound 570]
0.0079,5.56,0.0438,CCOc1ccnc2c1CCCN2c1ccc2cnc(CNC(=O)c3ccc4c(c3)S(=O)(=O)CCOC4)cc2n1 [Compound 573]
0.274,6.49,1.78,O=C(NCc1cc2nc(-n3cc(F)c(N4CCOCC4)n3)ccc2cn1)c1ccc2c(c1)S(=O)(=O)CCOC2 [Compound 574]
0.0054,15.34,0.0823,C[C@H]1CN(c2cccc(-c3ccc4cnc(CNC(=O)c5ccc(Cl)c(S(C)(=O)=O)c5)cc4n3)n2)CC[C@@H]1O [Compound 575]
0.0889,18.86,1.68,CCOc1ccc2c(n1)N(c1ccc3cnc(CNC(=O)c4ccc5c(c4)S(=O)(=O)CCOC5)cc3n1)CCC2 [Compound 576]
0.0277,19.00,0.525,C[C@@H]1CN(c2cccc(-c3ccc4cnc(CNC(=O)c5ccc(COC6CC6)c(S(C)(=O)=O)c5)cc4n3)n2)C[C@H](C)O1 [Compound 578]
0.106,16.67,1.76,CC[C@@H]1CCS(=O)(=O)c2cc(C(=O)NCc3cc4nc(-c5cccc(N6C[C@@H](C)O[C@@H](C)C6)n5)ccc4cn3)ccc2O1 [Compound 580]
0.155,15.23,2.37,C[C@@H]1CN(c2cccc(-c3ccc4cnc(CNC(=O)c5ccc6c(c5)S(=O)(=O)CC[C@@H](C(F)F)O6)cc4n3)n2)C[C@H](C)O1 [Compound 581]
0.109,17.41,1.89,O=C(NCc1cc2nc(N3CCOc4ccc(C(F)(F)F)nc43)ccc2cn1)c1ccc2c(c1)S(=O)(=O)CCOC2 [Compound 583]
0.0401,9.22,0.369,COC1(Cn2ccc3c(-c4ccc5cnc(CNC(=O)c6ccc7c(c6)S(=O)(=O)CCOC7)cc5n4)ccnc32)CC1 [Compound 585]
0.0055,14.77,0.0819,COCCOc1ccc2c(c1)N(c1ccc3cnc(CNC(=O)c4ccc5c(c4)S(=O)(=O)CCOC5)cc3n1)CCC2 [Compound 586]
0.0112,5.69,0.0639,C[C@@H]1CN(c2cccc(-c3ccc4cnc(CNC(=O)c5ccc6c(c5)S(=O)(=O)CCC(F)(F)C6)cc4n3)n2)C[C@H](C)O1 [Compound 587]
0.0289,14.25,0.412,O=C(NCc1cc2nc(N3CCCc4cc(Cl)cnc43)ccc2cn1)c1ccc2c(c1)S(=O)(=O)CCOC2 [Compound 588]
0.0777,13.88,1.08,O=C(NCc1cc2nc(N3CCCc4ccc(OCC5CC5)nc43)ccc2cn1)c1ccc2c(c1)S(=O)(=O)CCOC2 [Compound 589]
0.0224,7.93,0.177,COCc1cc2c(nc1C)N(c1ccc3cnc(CNC(=O)c4ccc5c(c4)S(=O)(=O)CCOC5)cc3n1)CCC2 [Compound 590]
0.022,10.98,0.242,O=C(NCc1cc2nc(N3CCCc4cc(F)cnc43)ccc2cn1)c1ccc2c(c1)S(=O)(=O)CCOC2 [Compound 591]
0.243,9.02,2.19,Cc1ccc2c(n1)N(c1ccc3cnc(CNC(=O)c4ccc5c(c4)S(=O)(=O)CCOC5)cc3n1)CCN2C [Compound 593]

IC50 (BRM) [µM],Ratio* (BRM),IC50 (BRG-1) [µM],SMILES
0.0372,31.92,1.19,O=C(NCc1cc2nc(N3CCOc4ccc(C(F)F)nc43)ccc2cn1)c1ccc2c(c1)S(=O)(=O)CCOC2 [Compound 594]
0.0413,11.61,0.479,CC1CN(c2cccc(-c3ccc4cnc(CNC(=O)c5cnc6c(c5)S(=O)(=O)C(C)CC6)cc4n3)n2)CC(C)O1 (stereo not drawn) [Compound 597]
0.0293,33.79,0.991,O=C(NCc1cc2nc(N3CCCc4ccc(COC5CC5)nc43)ccc2cn1)c1ccc2c(c1)S(=O)(=O)CCOC2 [Compound 598]
0.0588,12.54,0.737,COCc1nc2c(cc1Cl)CCCN2c1ccc2cnc(CNC(=O)c3ccc4c(c3)S(=O)(=O)CCOC4)cc2n1 [Compound 599]
0.0132,13.32,0.176,O=C(NCc1cc2nc(N3CCC4(CC4)c4cccnc43)ccc2cn1)c1ccc2c(c1)S(=O)(=O)CCOC2 [Compound 600]
0.215,8.88,1.91,O=C(NCc1cc2nc(N3CCCc4ccc(OCC(F)F)nc43)ccc2cn1)c1ccc2c(c1)S(=O)(=O)CCOC2 [Compound 601]
0.0158,9.98,0.158,COc1cc2c(nc1C)N(c1ccc3cnc(CNC(=O)c4ccc5c(c4)S(=O)(=O)CCOC5)cc3n1)CCC2 [Compound 602]
0.0107,10.88,0.117,O=C(NCc1cc2nc(N3CCCc4ccc(F)nc43)ccc2cn1)c1ccc2c(c1)S(=O)(=O)CCOC2 [Compound 603]
0.0057,10.00,0.0569,O=C(NCc1cc2nc(-c3cccc(N4CC(C5COC5)C4)n3)ccc2cn1)c1ccc2c(c1)S(=O)(=O)CCOC2 [Compound 604]
0.0117,16.04,0.187,COCc1ccc2c(c1)N(c1ccc3cnc(CNC(=O)c4ccc5c(c4)S(=O)(=O)CCOC5)cc3n1)CCC2 [Compound 605]
0.0075,16.72,0.125,O=C(NCc1cc2nc(N3CCOc4ccc(C5CC5)cc43)ccc2cn1)c1ccc2c(c1)S(=O)(=O)CCOC2 [Compound 606]
0.0446,15.74,0.702,CO[C@@H](C)c1cnc2c(c1)CCCN2c1ccc2cnc(CNC(=O)c3ccc4c(c3)S(=O)(=O)CCOC4)cc2n1 [Compound 607]
0.0445,21.42,0.952,CO[C@H](C)c1cnc2c(c1)CCCN2c1ccc2cnc(CNC(=O)c3ccc4c(c3)S(=O)(=O)CCOC4)cc2n1 [Compound 608]
0.0392,28.40,1.11,C[C@@H]1CN(c2cccc(-c3ccc4cnc(CNC(=O)c5ccc6c(c5)S(=O)(=O)[C@@H](C)COC6)cc4n3)c2F)C[C@H](C)O1 [Compound 609]
0.0513,21.62,1.11,C[C@@H]1CN(c2nccc(-c3ccc4cnc(CNC(=O)c5ccc6c(c5)S(=O)(=O)[C@@H](C)COC6)cc4n3)c2F)C[C@H](C)O1 [Compound 610]
0.0266,13.16,0.35,CC1Cc2ccc(-c3ccc4cnc(CNC(=O)c5ccc6c(c5)S(=O)(=O)CCOC6)cc4n3)nc2N(C)C1 (stereo not drawn) [Compound 612]
0.213,10.41,2.22,CO[C@H]1COc2c(-c3ccc4cnc(CNC(=O)c5ccc6c(c5)S(=O)(=O)CCOC6)cc4n3)cccc2N(C)C1 [Compound 613]
0.0951,9.06,0.862,CO[C@@H]1COc2c(-c3ccc4cnc(CNC(=O)c5ccc6c(c5)S(=O)(=O)CCOC6)cc4n3)cccc2N(C)C1 [Compound 614]
0.0221,16.22,0.358,CCN1CCN(c2ccc3cnc(CNC(=O)c4ccc5c(c4)S(=O)(=O)CCOC5)cc3n2)c2ncccc21 [Compound 615]
0.0082,54.03,0.442,O=C(NCc1cc2nc(N3CCOc4ccc(C5CC5)nc43)ccc2cn1)c1ccc2c(c1)S(=O)(=O)CCOC2 [Compound 616]
0.0904,28.12,2.54,CC(F)(F)c1ccc2c(n1)N(c1ccc3cnc(CNC(=O)c4ccc5c(c4)S(=O)(=O)CCOC5)cc3n1)CCO2 [Compound 617]
0.009,14.00,0.126,Cc1cnc2c(c1)N(C)CCN2c1ccc2cnc(CNC(=O)c3ccc4c(c3)S(=O)(=O)CCOC4)cc2n1 [Compound 618]
